System: RAW 264.7 cells
Assay: Quantitative cell-permeability of FITC-labeled aMTD- or rPeptide-fused CRA recombinant proteins (flow cytometry)
Format: cell-based
Method in brief: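 RAW 264.7 cells were exposed to 10 μM FITC-labeled recombinant proteins, consisting of a non-functional cargo fused to aMTD or rPeptide sequences, for 1 hour at 37° C. Cells were washed three times in cold PBS and treated with 0.25% tripsin/EDTA for 20 minutes at 37° C. to strip surface-bound protein, then uptake was measured by flow cytometry.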

[1] = cell-permeability of aMTD-fused CRA recombinant protein relative to negative control (A: rP38)
[2] = cell-permeability of aMTD-fused CRA recombinant protein relative to reference CPP (B: MTM12)
[3] = cell-permeability of aMTD-fused CRA recombinant protein relative to reference CPP (C: MTD85)
[4] = cell-permeability relative to negative control rP38 (A type), aMTD-fused CRA recombinant protein, 10 μM FITC-labeled, 1 hour, 37° C., RAW 264.7 cells
[5] = cell-permeability relative to reference CPP MTD85 (C type), aMTD-fused CRA recombinant protein, 10 μM FITC-labeled, 1 hour, 37° C., RAW 264.7 cells
[6] = cell-permeability relative to reference CPP MTM12 (B type), aMTD-fused CRA recombinant protein, 10 μM FITC-labeled, 1 hour, 37° C., RAW 264.7 cells

Row | Substance | Relative Ratio (Fold) A [1] | Relative Ratio (Fold) B [2] | Relative Ratio (Fold) C [3] | Relative Ratio (Fold) A [4] | Relative Ratio (Fold) C [5] | Relative Ratio (Fold) B [6]
1 | 382 (AAALVIPAILAP; Amino acid Sequence of aMTD382) [compound 382] | 17.7 Fold | 11.8 Fold | 6.0 Fold |  |  | 
2 | 664 (ILIAIAIPAAAP; Amino acid Sequence of aMTD664) [compound 664] |  |  |  | 5.7 Fold | 1.9 Fold | 3.8 Fold
3 | 645 (ALAVVALPAIVP; Amino acid Sequence of aMTD645) [compound 645] |  |  |  | 4.3 Fold | 1.5 Fold | 2.9 Fold
4 | 849 (AVILLAPLIAAP; Amino acid Sequence of aMTD849) [compound 849] | 8.3 Fold | 4.8 Fold | 2.9 Fold |  |  | 
5 | 4 (ALALLPVAALAP; Amino acid Sequence of aMTD4) [compound 4] |  |  |  | 2.0 Fold | 0.7 Fold | 1.3 Fold
6 | 585 (ALIVAIAPALVP; Amino acid Sequence of aMTD585) [compound 585] |  |  |  | 6.6 Fold | 2.2 Fold | 4.4 Fold
7 | 666 (AAIAIIAPAIVP; Amino acid Sequence of aMTD666) [compound 666] | 14.7 Fold | 9.9 Fold | 5.0 Fold |  |  | 
8 | 603 (VLVALAAPVIAP; Amino acid Sequence of aMTD603) [compound 603] | 54.1 Fold | 36.1 Fold | 18.2 Fold |  |  | 
9 | 561 (AAVAIVLPAVVP; Amino acid Sequence of aMTD561) [compound 561] |  |  |  | 3.9 Fold | 1.3 Fold | 2.6 Fold
10 | 401 (AALAVIPAAILP; Amino acid Sequence of aMTD401) [compound 401] | 10.6 Fold | 7.1 Fold | 3.6 Fold |  |  | 
11 | 870 (VLVAAVLPIAAP; Amino acid Sequence of aMTD870) [compound 870] | 16.6 Fold | 11.1 Fold | 5.6 Fold |  |  | 
12 | 145 (LLAVVPAVALAP; Amino acid Sequence of aMTD145) [compound 145] | 9.5 Fold | 6.3 Fold | 3.2 Fold |  |  | 
13 | 622 (ALIVLAAPVAVP; Amino acid Sequence of aMTD622) [compound 622] | 10.6 Fold | 7.1 Fold | 3.6 Fold | 10.6 Fold | 3.6 Fold | 7.1 Fold
14 | 582 (VAVALIVPALAP; Amino acid Sequence of aMTD582) [compound 582] | 30.6 Fold | 20.4 Fold | 10.3 Fold |  |  | 
15 | 82 (AVVLAPVAAVLP; Amino acid Sequence of aMTD82) [compound 82] |  |  |  | 2.1 Fold | 0.7 Fold | 1.4 Fold
16 | 831 (IIVAVAPAAIVP; Amino acid Sequence of aMTD831) [compound 831] | 46.3 Fold | 31.0 Fold | 15.7 Fold |  |  | 
17 | 601 (AAILIAVPIAAP; Amino acid Sequence of aMTD601) [compound 601] | 26.8 Fold | 17.9 Fold | 9.0 Fold |  |  | 
18 | 361 (AVVIVAPAVIAP; Amino acid Sequence of aMTD361) [compound 361] | 16.0 Fold | 10.7 Fold | 5.4 Fold |  |  | 
